Measured values from PubChem BioAssay (NCI).
Where “and” joins values, the source holds several entries; their conditions need not be identical. Equal entries are not always repeated.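 How tested: cells in 96-well plates exposed to compound for 48 hours at five concentrations. GI50: concentration for 50% inhibition of growth. TGI is the concentration that stops growth completely.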

Columns and labels:
Assay in all cases: inhibition of tumour cell growth, NCI panel, 48 h
[1] = system: HOP-92 NSCLC
[2] = system: MDA-MB-435
[3] = system: NCI-H226 lung
[4] = system: PC-3 prostate
[5] = system: SK-MEL-28 melanoma
[6] = system: EKVX NSCLC
[7] = system: IGROV1 ovarian
[8] = system: ACHN renal
[9] = system: SK-OV-3 ovarian
[10] = system: MALME-3M melanoma
[11] = system: UO-31 renal
[12] = system: SN12C renal
[13] = system: HS 578T breast
[14] = system: A498 renal
[15] = system: MCF7 breast
[16] = system: OVCAR-3 ovarian
[17] = system: SF-539 CNS
[18] = system: OVCAR-4 ovarian
[19] = system: UACC-62 melanoma
[20] = system: NCI-H460 lung
[21] = system: T-47D breast
[22] = system: BT-549 breast
[23] = system: HCC-2998 colon
[24] = system: LOX IMVI melanoma
[25] = system: CCRF-CEM leukemia
[26] = system: OVCAR-8 ovarian
[27] = system: DU-145 prostate
[28] = system: A549 NSCLC
[29] = system: HL-60(TB) leukemia
[30] = system: HCT-15 colon
[31] = system: COLO 205 colon
[32] = system: HCT-116 colon
[33] = system: SNB-75 CNS
[34] = system: HOP-62 NSCLC
[35] = system: NCI/ADR-RES ovarian
[36] = system: MDA-MB-231 breast
[37] = system: SW-620 colon
[38] = system: OVCAR-5 ovarian
[39] = system: MOLT-4 leukemia
[40] = system: TK-10 renal
[41] = system: UACC-257 melanoma
[42] = system: SR leukemia
[43] = system: SNB-19 CNS
[44] = system: KM12 colon
[45] = system: CAKI-1 renal
[46] = system: U251 CNS
[47] = system: MDA-N
[48] = system: NCI-H522 lung
[49] = system: K-562 leukemia
[50] = system: 786-0 renal
[51] = system: HT29 colon
[52] = system: SF-295 CNS
[53] = system: SK-MEL-5 melanoma
[54] = system: SF-268 CNS
[55] = system: SK-MEL-2 melanoma
[56] = system: NCI-H23 lung
[57] = system: RPMI-8226 leukemia
[58] = system: RXF 393 renal
[59] = system: M14 melanoma

CC1=C2O[C@]3(O)C=C2C(=C(O)C1=O)[C@@H]1O[C@H](CC[C@H](C)/C=C(\C)C[C@@H](C)C[C@@H]3C)[C@H](C)[C@H](O)[C@H]1C
GI50 [1]: 177 nM
TGI [1]: 273 nM and 377 nM
GI50 [2]: 199 nM
TGI [2]: 325 nM and 429 nM
GI50 [3]: 935 nM
TGI [3]: 2120 nM and 2390 nM
TGI [4]: 1050 nM and 637 nM
TGI [5]: 662 nM and 588 nM
TGI [6]: 939 nM and 910 nM
GI50 [7]: 272 nM
TGI [7]: 324 nM and 664 nM
GI50 [8]: 182 nM
TGI [8]: 239 nM and 323 nM
GI50 [9]: 1720 nM
TGI [9]: 2130 nM and 3110 nM
TGI [10]: 480 nM and 334 nM
GI50 [11]: 232 nM
TGI [11]: 548 nM and 654 nM
GI50 [12]: 495 nM
TGI [12]: 2150 nM and 1940 nM
TGI [13]: 1490 nM
GI50 [14]: 177 nM
TGI [14]: 694 nM and 2930 nM
TGI [15]: 556 nM and 395 nM
GI50 [16]: 187 nM
TGI [16]: 355 nM and 394 nM
GI50 [17]: 240 nM
TGI [17]: 384 nM and 580 nM
GI50 [18]: 229 nM
TGI [18]: 560 nM and 637 nM
GI50 [19]: 356 nM
TGI [19]: 695 nM and 1160 nM
GI50 [20]: 1420 nM
TGI [20]: 1820 nM
GI50 [21]: 105 nM and 184 nM
TGI [21]: 230 nM and 361 nM
GI50 [22]: 878 nM
TGI [22]: 863 nM and 2150 nM
GI50 [23]: 330 nM
TGI [23]: 384 nM and 1160 nM
GI50 [24]: 274 nM
TGI [24]: 793 nM and 739 nM
GI50 [25]: 33.9 nM
TGI [25]: 296 nM
GI50 [26]: 169 nM and 234 nM
TGI [26]: 472 nM and 597 nM
TGI [27]: 1030 nM and 659 nM
GI50 [28]: 1610 nM
TGI [28]: 2080 nM and 3390 nM
GI50 [29]: 203 nM
TGI [29]: 617 nM
GI50 [30]: 180 nM
TGI [30]: 289 nM and 406 nM
GI50 [31]: 165 nM
TGI [31]: 256 nM and 313 nM
GI50 [32]: 201 nM
TGI [32]: 486 nM and 436 nM
GI50 [33]: 603 nM
TGI [33]: 897 nM and 1350 nM
GI50 [34]: 1390 nM
TGI [34]: 709 nM and 3150 nM
GI50 [35]: 559 nM
TGI [35]: 1350 nM and 2680 nM
GI50 [36]: 285 nM
TGI [36]: 352 nM and 830 nM
TGI [37]: 3470 nM
GI50 [38]: 767 nM
TGI [38]: 3190 nM and 2080 nM
GI50 [39]: 174 nM
TGI [39]: 2340 nM and 688 nM
GI50 [40]: 336 nM
TGI [40]: 372 nM and 1160 nM
GI50 [41]: 412 nM
TGI [41]: 860 nM and 2340 nM
TGI [42]: 4180 nM
GI50 [43]: 1580 nM
TGI [43]: 1980 nM and 3110 nM
GI50 [44]: 376 nM
TGI [44]: 1750 nM and 1270 nM
GI50 [45]: 295 nM
TGI [45]: 1660 nM and 780 nM
GI50 [46]: 288 nM
TGI [46]: 1160 nM and 752 nM
GI50 [47]: 204 nM
TGI [47]: 398 nM and 446 nM
TGI [48]: 321 nM
TGI [49]: 4870 nM
GI50 [50]: 180 nM
TGI [50]: 324 nM and 342 nM
GI50 [51]: 216 nM
TGI [51]: 529 nM and 504 nM
GI50 [52]: 1640 nM
TGI [52]: 2300 nM and 3110 nM
GI50 [53]: 777 nM
TGI [53]: 1660 nM and 1710 nM
GI50 [54]: 303 nM
TGI [54]: 1140 nM and 892 nM
GI50 [55]: 282 nM
TGI [55]: 851 nM and 703 nM
GI50 [56]: 563 nM
TGI [56]: 1170 nM and 1880 nM
TGI [57]: 378 nM and 582 nM
TGI [58]: 434 nM
GI50 [59]: 220 nM
TGI [59]: 363 nM and 526 nM
